Measurements as given in patent US6608004B2, “Substituted 2-aryl-1,2,4-triazine-3,5-di(thi)ones” (priority 1999, dated 2003).
Where two headings read alike, the source gives them in different places.

Experiments:
[1] = logP determination by HPLC, reversed-phase column (C 18), EEC Directive 79/831 Annex V.A8
Excerpt: (a) Mobile phases for the determination in the acidic range: 0.1% aqueous phosphoric acid, acetonitrile; linear gradient from 10% acetonitrile to 90% acetonitrile—the corresponding measurement results are labelled in Table 1 with ^a).
(b) Mobile phases for the determination in the neutral range: 0.01 molar aqueous phosphate buffer solution, acetonitrile; linear gradient from 10% acetonitrile to 90% acetonitrile—the corresponding measurement results are labelled in Table 1 with ^b).

weeds [2] = assay: Pre-Emergence Test (Example A), activity against weeds; type: in vivo; conditions: soil sprayed about 24 hours after sowing, rated after three weeks
Excerpt: (§1) Solvent: 5 parts by weight of acetone
(§2) Emulsifier: 1 part by weight of alkylaryl polyglycol ether
(§3) Seeds of the test plants are sown in normal soil.
0%=no effect (like untreated control)

[3] = tested on: crop plants, such as, for example, barley, wheat, rapeseed, soya and sugar beet; assay: Pre-Emergence Test (Example A), tolerance by crop plants; type: in vivo
Excerpt: as §1, §2, §3

weeds [4] = assay: Post-Emergence Test (Example B), activity against weeds; type: in vivo; conditions: test plants of a height of 5-15 cm sprayed, rated after three weeks
Excerpt: as §1, §2
(§4) After three weeks, the degree of damage to the plants is rated in % damage in comparison to the development of the untreated control.

[5] = tested on: crop plants, such as, for example, barley and wheat; assay: Post-Emergence Test (Example B), tolerance by crop plants
Excerpt: as §1, §2, §4

Structure (SMILES) | logP a) [1] | activity against weeds (degree of damage) (weeds [2]) | tolerance by crop plants ([3]; in vivo) | activity against weeds (degree of damage) (weeds [4]) | tolerance by crop plants ([5]; in vivo) | logP a) ([1]; a) acidic range: 0.1% aqueous phosphoric acid, acetonitrile gradient, HPLC C 18, 43° C.) | tolerance by crop plants ([3]; pre-emergence, barley, wheat, rapeseed, soya and sugar beet, rated after three weeks) | tolerance by crop plants ([5]; post-emergence, barley and wheat, rated after three weeks)
CCS(=O)(=O)N(C(=O)COC)c1cc(-n2ncc(=O)n(C)c2=O)c(F)cc1C#N [Example 25] | logP = 1.82^a) | very strong activity | essentially being tolerated well | very strong activity | essentially being tolerated well |  |  | 
CCS(=O)(=O)N(C(=O)c1ccc(F)cc1)c1cc(-n2ncc(=O)n(C)c2=O)c(F)cc1C#N [Example 26] | m.p.: 123 °C logP = 2.60^a) | very strong activity | essentially being tolerated well | very strong activity | essentially being tolerated well |  |  | 
CCS(=O)(=O)N(C(=O)CCCCl)c1cc(-n2ncc(=O)n(C)c2=O)c(F)cc1C#N [Example 27] | logP = 2.43^a) | very strong activity | essentially being tolerated well | very strong activity | essentially being tolerated well |  |  | 
CCS(=O)(=O)N(C(=O)C=C(C)C)c1cc(-n2ncc(=O)n(C)c2=O)c(F)cc1C#N [Example 32] |  | very strong activity |  | very strong activity |  | m.p.: 150 °C logP = 2.40^a) | essentially being tolerated well | essentially being tolerated well
CCS(=O)(=O)N(C(=O)COc1ccccc1Cl)c1cc(-n2ncc(=O)n(C)c2=O)c(F)cc1C#N [Example 35] | m.p.: 220 °C logP = 2.89^a) | very strong activity | essentially being tolerated well | very strong activity | essentially being tolerated well |  |  | 

More lines, main results first:

logP a) [1] | Structure (SMILES) | activity against weeds (degree of damage) (weeds [2]) | tolerance by crop plants ([3]; in vivo) | activity against weeds (degree of damage) (weeds [4]) | tolerance by crop plants ([5]; in vivo) | logP a) ([1]; a) acidic range: 0.1% aqueous phosphoric acid, acetonitrile gradient, HPLC C 18, 43° C.) | tolerance by crop plants ([3]; pre-emergence, barley, wheat, rapeseed, soya and sugar beet, rated after three weeks) | tolerance by crop plants ([5]; post-emergence, barley and wheat, rated after three weeks)
logP = 1.79^a) | CCS(=O)(=O)N(C(C)=O)c1cc(-n2ncc(=O)n(C)c2=O)c(F)cc1C#N [Example 28] | very strong activity | essentially being tolerated well | very strong activity | essentially being tolerated well |  |  | 
logP = 2.51^a) | CCS(=O)(=O)N(C(=O)CCCBr)c1cc(-n2ncc(=O)n(C)c2=O)c(F)cc1C#N [Example 30] | very strong activity | essentially being tolerated well | very strong activity | essentially being tolerated well |  |  | 
m.p.: 123 °C logP = 3.66^a) | CCS(=O)(=O)N(C(=O)CCC1CCCCC1)c1cc(-n2ncc(=O)n(C)c2=O)c(F)cc1C#N [Example 31] | very strong activity | essentially being tolerated well | very strong activity | essentially being tolerated well |  |  | 
m.p.: 210 °C logP = 2.73^a) | CCS(=O)(=O)N(C(=O)Cc1ccc(F)cc1F)c1cc(-n2ncc(=O)n(C)c2=O)c(F)cc1C#N [Example 36] | very strong activity | essentially being tolerated well | very strong activity | essentially being tolerated well |  |  | 
m.p.: 222 °C logP = 2.96^a) | CCS(=O)(=O)N(C(=O)Cc1ccc(Cl)cc1)c1cc(-n2ncc(=O)n(C)c2=O)c(F)cc1C#N [Example 42] | very strong activity | essentially being tolerated well | very strong activity | essentially being tolerated well |  |  | 
